# Assay results taken from patent US20130165426A1, “IMIDAZOPYRIDINE, IMIDAZOPYRIMIDINE AND IMIDAZOPYRAZINE DERIVATIVES AS MELANOCORTIN-4 RECEPTOR MODULATORS” (UNIVERSITÉ DE MONTRÉAL, priority 2010, published 2013).
# Non-standard residues stand in square brackets, D forms with d. Nle = CCCC[C@H](N)C(=O)O
# Molecular target: T1, wild-type human melanocortin 4 receptor (WT-hMC4R) (Homo sapiens, UniProt P32245)
# T1 construct: expressed in transfected cells
# Test: Cyclic AMP assay (HTRF), antagonist competition against NDP-α-MSH
# Type: cell-based
# Conditions: HEK293T cells stably expressing WT-hMC4R; inhibition of response to 4 nM NDP-α-MSH; cAMP
# Procedure: The general procedures described above were used to prepare the examples described below. Reported HPLC retention time are for reverse-phase HPLC (Agilent, 1200 series) using the conditions reported above (See “General” section). Mass spectra were recorded on a 6210 G1969A LC/MSD TOF spectrometer from Agilent Technologies using the LC conditions reported above (See “General” section). IC50 values were obtained using the cAMP assay described below.
# IC50 value is the half maximal concentration of the tested compound to inhibit half of the maximal response of the agonist NDP-α-MSH. It is a measurement of the antagonist compound potency.
# Intracellular cyclic 3′-5′ adenosine monophosphate (cAMP) accumulation was measured using a competitive immunoassay based on HTRF (Homogeneous Time-Resolved Fluorescence) technology (cAMP dynamic-2, Cis-Bio).
# HEK293T stable cell line expressing double-tagged WT-hMC4R construct were collected and washed in cAMP buffer (1×D-PBS pH 7.4, 0.1% glucose). 40,000 cells/well were then dispensed in 96-well plates in cAMP buffer [1×D-PBS, 1% BSA, 0.1% Glucose, 0.75 mM 3-isobutyl-1-methyl-xanthine (IBMX, Sigma)] and incubated either for antagonist competition assay: 1 hour at 37° C. with various concentrations of compound [0.01 nM-10 μM] followed by 30 min incubation at 37° C. with 4 nM of NDP-α-MSH (Sigma) or for agonist assay: 1 hour at 37° C. with various concentrations of compound [0.01 nM-10 μM]. 10,000 cells were transferred in 384-well plates, lysed and incubated with cAMP labeled with the dye d2 and anti-cAMP M-Antidody labeled with Cryptate following the manufacturer's protocol.
# Reading of HTRF signal was performed on Artemis TR-FRET plate reader (Cosmo Bio).
# All curve fitting was conducted using non-linear regression analyses from PRISM (version 4.0c, GraphPad Inc.) and the determination of Rmax and EC50 or IC50 parameters were obtained from sigmoidal dose-response phase (variable slope) equation.
# A cDNA encoding a wild-type human MC4R with a 3 tandem copies of Hemaglutinine (HA) epitote sequence from UMR cDNA resource center was modified using known techniques in the art (e.g., PCR, cloning) to fused in frame at the C-terminal a venus-Yellow Fluorescent Protein (YFP) cDNA.
# The resultant cDNA was then subcloned in eukaryotic expression vector, e.g. pcDNA 3.1(+) (Invitrogen).
# The double tagged WT-hMC4R was transfected in HEK293T cells with lipofectamine (Invitrogen) following the manufacturer's instructions and permanently transfected clonal cell lines were selected by resistance to the neomycin analog G418.
# HEK293T stable cell line expressing wild-type human melanocortin 4 receptor (WT-hMC4R) containing an N-terminal 3×HA epitope tag and an intracellular C-terminal venus-yellow fluorescent protein (v-YFP) were maintained at 37° C. in humidified air containing 5% CO2 in Dulbecoo's modified Eagle's medium (DMEM) supplemented with 10% fetal bovine serum (FBS), 100 U/ml penicillin/streptomycin (DMEM complete/10% FBS). Cells were generally at 70%-80% confluence on the day of assay.
# T1 sequence (P32245 whole entry): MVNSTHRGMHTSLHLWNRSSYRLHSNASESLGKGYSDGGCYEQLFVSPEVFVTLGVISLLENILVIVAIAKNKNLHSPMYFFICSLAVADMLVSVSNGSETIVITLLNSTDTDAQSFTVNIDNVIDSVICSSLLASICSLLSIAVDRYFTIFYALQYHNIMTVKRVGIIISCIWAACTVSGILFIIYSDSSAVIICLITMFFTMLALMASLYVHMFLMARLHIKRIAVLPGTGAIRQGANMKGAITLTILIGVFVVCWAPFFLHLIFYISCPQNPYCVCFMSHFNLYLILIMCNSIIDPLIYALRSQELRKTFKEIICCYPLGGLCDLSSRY
row,Compound,IC50 [µM]
1,CCCCN(CCCC)C(=O)c1cnc2nc(Nc3ccc(OC)cc3)n(CCCN3CCCCC3)c2c1 [Cpd 38],1 to 15
2,CCCN(C(=O)c1ccc2nc(Nc3ccc(OC)cc3)n(CCCN3CCCCC3)c2n1)C(C)CC (stereo not shown) [Cpd 25],0.1 to 1
3,CCCCN(CCCC)C(=O)c1ccc2nc(N)n(CCCN3CCCCC3)c2n1 [Cpd 40],1 to 15
4,"COc1ccc(Nc2nc3ccc(C(=O)N4CC(C)CC(C)C4)nc3n2CCCN2CCCCC2)cc1 (stereo not shown) [Cpd 2, (3,5-dimethylpiperidin-1-yl)(2-((4-methoxyphenyl)amino)-3-(3-(piperidin-1-yl)propyl)-3H-imidazo[4,5-b]pyridin-5-yl)methanone]",1 to 15
5,CCC(C)N(C(=O)c1ccc2nc(Nc3ccc(OC)cc3)n(CCCN3CCCCC3)c2n1)C(C)CC (stereo not shown) [Cpd 15],0.1 to 1
6,COc1ccc(Nc2nc3ccc(C(=O)N(CCC(C)C)CCC(C)C)nc3n2C2CCN(Cc3ccccc3)CC2)cc1 [Cpd 27],1 to 15
7,COc1ccc(Nc2nc3ccc(C(=O)N4CCCC5CCCCC54)nc3n2CCCN2CCCCC2)cc1 (stereo not shown) [Cpd 23],1 to 15
8,COc1ccc(Nc2nc3cnc(C(=O)N(CCC(C)C)CCC(C)C)cc3n2CCCN2CCCCC2)cc1 [Cpd 37],< 0.1
9,CCCCN(CC#N)C(=O)c1ccc2nc(Nc3ccc(OC)cc3)n(CCCN3CCCCC3)c2n1 [Cpd 20],1 to 15
10,CCCCN(CCCC)C(=O)c1ccc2nc(Nc3ccccc3)n(CCCN3CCCCC3)c2n1 [Cpd 8],< 0.1
11,CCCCN(CCCC)C(=O)c1ccc2nc(Nc3ccc(OC)cc3)n(CC(C)(C)CN(C)C)c2n1 [Cpd 29],1 to 15
12,CCCCN(CCCC)C(=O)c1ccc2nc(Nc3cccnc3)n(CCCN3CCCCC3)c2n1 [Cpd 35],< 0.1
13,CCCCN(CCCC)Cc1ccc2nc(Nc3ccc(OC)cc3)n(CCCN3CCCCC3C)c2n1 (stereo not shown) [Cpd 28],1 to 15
14,COc1ccc(Nc2nc3ccc(C(=O)N4CCCCCC4)nc3n2CCCN2CCCCC2)cc1 [Cpd 21],1 to 15
15,"CCCCN(CCCC)C(=O)c1ccc2nc(-c3cccc(C#N)c3)n(CCCN3CCCCC3)c2n1 [Cpd 4, N,N-dibutyl-2-(3-cyanophenyl)-3-(3-(piperidin-1-yl)propyl)-3H-imidazo[4,5-b]pyridine-5-carboxamide]",1 to 15

# The next lines start with the values.
row,IC50 [µM],Compound
1,0.1 to 1,CCCCN(CCCC)C(=O)c1ccc2nc(Nc3ccc(C(=O)N4CCN(C)CC4)cc3)n(CCCN3CCCCC3)c2n1 [Cpd 58]
2,0.1 to 1,COc1ccc(-c2nc3cnc(C(=O)N(CCC(C)C)CCC(C)C)nc3n2CCCN2CCCCC2)cc1 [Cpd 54]
3,1 to 15,CCCCN(CCCC)C(=O)c1cc2c(cn1)nc(-c1ccc(OC)cc1)n2CCCN1CCCCC1 [Cpd 60]
4,0.1 to 1,CCCCN(CCCC)C(=O)c1ccc(Nc2nc3ccc(C(=O)N(CCCC)CCCC)nc3n2CCCN2CCCCC2)cc1 [Cpd 55]
5,0.1 to 1,CCCCN(CCCC)C(=O)c1ccc2nc(-c3cc(Br)ccc3OC)n(CCCN3CCCCC3)c2n1 [Cpd 44]
6,0.1 to 1,CCCCN(CCCC)C(=O)c1ccc2nc(Oc3ccc(OC)cc3)n(CCCN3CCCCC3)c2n1 [Cpd 62]
7,< 0.1,CC(C)CCN(CCC(C)C)C(=O)c1ccc2nc(Nc3ccc(C(C)O)cc3)n(CCCN3CCCCC3)c2n1 (stereo not shown) [Cpd 69]
8,0.1 to 1,CC(C)CCN(CCC(C)C)C(=O)c1ccc2nc(NCc3ccc4c(c3)OCO4)n(CCCN3CCOCC3)c2n1 [Cpd 76]
9,0.1 to 1,CCCCN(CCCC)C(=O)c1cc2c(cn1)nc(Nc1ccccc1)n2CCCN1CCCCC1 [Cpd 51]

# Tested on: MC4R as compared to the MC3R
# Test: not given
# Conditions: Nijenhuis et al. 2003; Sutton et al. 2008; cited from earlier work
row,Compound,selectivity for the MC4R as compared to the MC3R (MC4R/MC3R) [fold]
1,Ac-Nle-Gly-Lys-D-Phe-Arg-Trp-Gly-NH(2) (Ac-[Nle]GK[dF]RWG-NH2; SMILES CCCC[C@H](NC(C)=O)C(=O)NCC(=O)N[C@@H](CCCCN)C(=O)N[C@H](Cc1ccccc1)C(=O)N[C@@H](CCCNC(=N)N)C(=O)N[C@@H](Cc1c[nH]c2ccccc12)C(=O)NCC(N)=O),90
2,Ac-Nle-Gly-Lys-D-NaI(2)-Arg-Trp-Gly-NH(2),34

# Tested on: MC4R as compared to the MC5R
# Test: not given
# Conditions: Nijenhuis et al. Peptides 2003; cited from earlier work
row,Compound,selectivity for the MC4R as compared to the MC5R (MC4R/MC5R) [fold]
1,Ac-Nle-Gly-Lys-D-Phe-Arg-Trp-Gly-NH(2) (Ac-[Nle]GK[dF]RWG-NH2; SMILES CCCC[C@H](NC(C)=O)C(=O)NCC(=O)N[C@@H](CCCCN)C(=O)N[C@H](Cc1ccccc1)C(=O)N[C@@H](CCCNC(=N)N)C(=O)N[C@@H](Cc1c[nH]c2ccccc12)C(=O)NCC(N)=O),110
2,Ac-Nle-Gly-Lys-D-NaI(2)-Arg-Trp-Gly-NH(2),109
